Source: patent publication US12590096B2, “Imidazo[2,1-f][1,2,4]triazin-4-amine as TLR8 agonists” (BeOne Medicines | GmbH, priority 2019, dated 2026)
Where two headings read alike, the source gives them in different places.

Target: T1, human TLR 8 protein in HEK-blue hTLR 8 tool cell line (Homo sapiens, UniProt Q9NR97)
T1 construct: expressed in transfected cells; host or cells: HEK293 (HEK-Blue hTLR8)
T1 sequence (Q9NR97 27-1041): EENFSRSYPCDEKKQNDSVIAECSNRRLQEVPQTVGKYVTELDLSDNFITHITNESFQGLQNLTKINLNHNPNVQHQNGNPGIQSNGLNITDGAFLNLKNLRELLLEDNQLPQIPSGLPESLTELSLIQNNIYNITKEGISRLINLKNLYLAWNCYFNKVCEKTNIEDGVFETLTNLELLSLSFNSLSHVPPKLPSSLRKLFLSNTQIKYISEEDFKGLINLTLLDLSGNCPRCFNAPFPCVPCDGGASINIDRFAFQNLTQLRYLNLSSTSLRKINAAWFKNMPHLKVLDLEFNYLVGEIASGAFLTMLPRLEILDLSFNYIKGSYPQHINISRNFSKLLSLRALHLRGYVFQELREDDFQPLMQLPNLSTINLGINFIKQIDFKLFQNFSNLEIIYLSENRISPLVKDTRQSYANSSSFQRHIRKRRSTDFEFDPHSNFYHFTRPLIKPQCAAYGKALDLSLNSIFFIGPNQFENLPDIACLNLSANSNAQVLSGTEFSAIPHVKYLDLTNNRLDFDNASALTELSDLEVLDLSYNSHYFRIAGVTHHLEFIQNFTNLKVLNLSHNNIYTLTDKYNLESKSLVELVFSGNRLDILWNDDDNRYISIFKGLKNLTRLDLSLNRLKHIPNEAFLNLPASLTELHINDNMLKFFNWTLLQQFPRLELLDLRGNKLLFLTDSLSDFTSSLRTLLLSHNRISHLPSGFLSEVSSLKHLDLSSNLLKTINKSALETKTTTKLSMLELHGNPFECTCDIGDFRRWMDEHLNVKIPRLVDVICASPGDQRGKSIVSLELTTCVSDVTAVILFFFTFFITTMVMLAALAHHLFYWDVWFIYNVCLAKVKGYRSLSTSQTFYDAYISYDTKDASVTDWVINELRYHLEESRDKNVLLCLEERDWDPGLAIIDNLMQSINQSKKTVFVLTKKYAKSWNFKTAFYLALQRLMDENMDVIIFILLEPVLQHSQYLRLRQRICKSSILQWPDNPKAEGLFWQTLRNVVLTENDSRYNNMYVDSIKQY
Assay: TLR8 stimulation determined by HEK-Blue Detection (NF-κB/SEAP reporter)
Assay type: cell-based
Conditions: HEK-Blue hTLR8 cells, 16 h incubation
Excerpt: TLR8 Stimulation Determined by HEK-Blue Detection
This assay was designed to study the stimulation of human TLR 8 protein in HEK-blue hTLR 8 tool cell line by monitoring the activation of NF-κB. HEK-blue hTLR8 cells were obtained by co-transfection of hTLR8 gene and optimized secretory embryonic alkaline phosphatase (SEAP) reporter gene into HEK293 cells. SEAP reporter gene was put under the control of […] minimal promoter fused with five NF-κB and AP-1-binding sites. NF-κB and AP-1 were activated by stimulation with TLR 8 ligand, thus inducing the expression of SEAP. The level of SEAP can be easily determined by HEK-Blue Detection (a cell culture medium that allows real-time detection of SEAP). HEK-Blue Detection comprises all nutrients needed for cell growth and specific SEAP color substrates. The hydrolysis of substrate by SEAP produces purple/blue color which can be measured by spectrophotometer.
When growing to 50-80% confluence, HEK-Blue hTLR7/8 cells were plated into 96-well plates (costar 3599) at a density of 40,000 cells/well. Then, the compound serially diluted at 10 points with a final concentration ranging from 1 nM to 10 μm in 0.1% DMSO/HEK-Blue Detection was added. The plates were then incubated in 5% CO2 at 37° C. for 16 h. Optical density at 620-655 nm was read on BMG PHERAstar FSX instrument. The EC50 of each compound was determined by calculating the maximum activation percentage identified using Resiquimod or motolimod.
The EC50 of the tested compound of the present invention is as follows.

[1] = relative to maximum activation by Resiquimod or motolimod, read-out: EC50 (nmol)

| SMILES | EC50 [1] | EC50 (unit μM, read-out: EC50) |
| --- | --- | --- |
| CCC[C@H](C)Oc1nc(N)c2ncc(C=C3CCNCC3)n2n1 [Compound B35, (S)-2-(pent-2-yloxy)-7-(piperidin-4-ylidenemethyl)imidazo[2,1-f][1,2,4]triazin-4-amine] | 0.921 µM |  |
| CCCCNc1nc(N)c2ncc(CC3CCNCC3)n2n1 [Compound B4, N2-butyl-7-(piperidin-4-ylmethyl)imidazo[2,1-f][1,2,4]triazin-2,4-diamine] | 0.347 µM |  |
| Cc1cc(COc2nc(N)c3ncc(CC4CCNCC4)n3n2)no1 [Compound B41, 2-((5-methylisoxazol-3-yl)methoxy)-7-(piperidin-4-ylmethyl)imidazo[2,1-f][1,2,4]triazin-4-amine] | > 10 µM |  |
| Cc1cnc(COc2nc(N)c3ncc(CC4CCNCC4)n3n2)s1 [Compound B44, 2-((5-methylthiazol-2-yl)methoxy)-7-(piperidin-4-ylmethyl)imidazo[2,1-f][1,2,4]triazin-4-amine] | > 10 µM |  |
| CCCC(Cc1ccccc1)Oc1nc(N)c2ncc(CC3CCNCC3)n2n1 (stereo not drawn) [Compound B45, 2-((1-phenylpent-2-yl)oxy)-7-(piperidin-4-ylmethyl)imidazo[2,1-f][1,2,4]triazin-4-amine] | 0.531 µM |  |
| CCCC(C)Oc1nc(N)c2ncc(CN3CCN[C@@H](C)C3)n2n1 (stereo partly drawn) [Compound B16, 7—(((S)-3-methylpiperazin-1-yl)methyl)-2-(pent-2-yloxy)imidazo[2,1-f][1,2,4]triazin-4-amine] | 8.49 µM |  |
| CCCCOc1nc(N)c2ncc(CCC3CCNCC3)n2n1 [Compound B3, 2-butoxy-7-(2-(piperidin-4-yl)ethyl)imidazo[2,1-f][1,2,4]triazin-4-amine] | 0.346 µM |  |
| CCCC(C)Oc1nc(N)c2ncc(CN3CCNC[C@@H]3C)n2n1 (stereo partly drawn) [Compound B17, 7—(((S)-2-methylpiperazin-1-yl)methyl)-2-(pent-2-yloxy)imidazo[2,1-f][1,2,4]triazin-4-amine] | 3.95 µM |  |
| CCCC(CCC)Oc1nc(N)c2ncc(CC3CCNCC3)n2n1 [Compound B47, 2-(hept-4-yloxy)-7-(piperidin-4-ylmethyl)imidazo[2,1-f][1,2,4]triazin-4-amine] | 0.084 µM |  |
| CCC[C@H](C)Oc1nc(N)c2ncc(CC3CCC4(CC3)CNC4)n2n1 [Compound B43, (S)-7-((2-azaspiro[3.5]non-7-yl)methyl)-2-(pent-2-yloxy)imidazo[2,1-f][1,2,4]triazin-4-amine] | 0.024 µM |  |
| CCCC(C)Oc1nc(N)c2ncc(CC3(C)CCNCC3)n2n1 (stereo not drawn) [Compound B8, 7-((4-methylpiperidin-4-yl)methyl)-2-(pent-2-yloxy)imidazo[2,1-f][1,2,4]triazin-4-amine] | 0.515 µM |  |
| CCC[C@H](C)Oc1nc(N)c2ncc(CC3CC4(CCNCC4)C3)n2n1 [Compound B50, (S)-7-((7-azaspiro[3.5]non-2-yl)methyl)-2-(pent-2-yloxy)imidazo[2,1-f][1,2,4]triazin-4-amine] | 0.209 µM |  |
| CCC[C@H](C)Oc1nc(N)c2ncc(NC3CCNCC3)n2n1 [Compound B37, (S)-2-(pent-2-yloxy)-N7-(piperidin-4-yl)imidazo[2,1-f][1,2,4]triazin-4,7-diamine] | > 10 µM |  |
| CCCC(C)Nc1nc(N)c2ncc(CC3CCNCC3)n2n1 (stereo not drawn) [Compound B5, N2-(pent-2-yl)-7-(piperidin-4-ylmethyl)imidazo[2,1-f][1,2,4]triazin-2,4-diamine] | 0.917 µM |  |
| CCC[C@H](C)Oc1nc(N)c2ncc(CC3CCCCN3)n2n1 (stereo partly drawn) [Compound B51, 2-(((S)-pent-2-yl)oxy)-7-(piperidin-2-ylmethyl)imidazo[2,1-f][1,2,4]triazin-4-amine] | 0.41 µM |  |
| CCC[C@H](C)Oc1nc(N)c2ncc(CC3CCNCC3(F)F)n2n1 (stereo partly drawn) [Compound B57, 7-((3,3-difluorpiperidin-4-yl)methyl)-2-(((S)-pent-2-yl)oxy)imidazo[2,1-f][1,2,4]triazin-4-amine] |  | > 10 µM |
| CCC[C@H](C)Oc1nc(N)c2ncc(CC3CC4CCC(C3)N4)n2n1 (stereo partly drawn) [Compound B56, 7-((8-azabicyclo[3.2.1]oct-3-yl)methyl)-2-(((S)-pent-2-yl)oxy)imidazo[2,1-f][1,2,4]triazin-4-amine] | 1.92 µM |  |
| CCC[C@H](CC)Oc1nc(N)c2ncc(CC3CCNCC3)n2n1 [Compound B49, (S)-2-(hex-3-yloxy)-7-(piperidin-4-ylmethyl)imidazo[2,1-f][1,2,4]triazin-4-amine] | 0.0075 µM |  |
| CCCC(C)Oc1nc(N)c2ncc(CN3CCNCC3)n2n1 (stereo not drawn) [Compound B9, 2-(pent-2-yloxy)-7-(piperazin-1-ylmethyl)imidazo[2,1-f][1,2,4]triazin-4-amine] | 0.529 µM |  |
| CCC[C@H](C)Oc1nc(N)c2ncc(C=C3CC4CCC(C3)N4)n2n1 [Compound B55, 7-((8-azabicyclo[3.2.1]oct-3-ylene)methyl)-2-(((S)-pent-2-yl)oxy)imidazo[2,1-f][1,2,4]triazin-4-amine] |  | > 10 µM |

Continued, in another order:

| EC50 [1] | SMILES | EC50 (unit μM, read-out: EC50) |
| --- | --- | --- |
| 0.022 µM | CCC[C@H](C)Oc1nc(N)c2ncc(CC3CCN(CC(C)NC)CC3)n2n1 (stereo partly drawn) [Compound B54, 7-((1-(2-(methylamino)propyl)piperidin-4-yl)methyl)-2-(((S)-pent-2-yl)oxy)imidazo[2,1-f][1,2,4]triazin-4-amine] |  |
| 0.015 µM | CCCC(C)Oc1nc(N)c2ncc(CC3CCNCC3)n2n1 (stereo not drawn) [Compound B2, 2-(pent-2-yloxy)-7-(piperidin-4-ylmethyl)imidazo[2,1-f][1,2,4]triazin-4-amine] |  |
| 0.143 µM | CCC[C@H](C)Oc1nc(N)c2ncc(CC3CCN(C4CCNCC4)CC3)n2n1 [Compound B23, (S)-7-([1,4′-bipiperidin]-4-ylmethyl)-2-(pent-2-yloxy)imidazo[2,1-f][1,2,4]triazin-4-amine] |  |
| > 10 µM | CCCC(C)Oc1nc(N)c2ncc(CN3CCC(CNC)CC3)n2n1 (stereo not drawn) [Compound B22] |  |
| > 10 µM | CCCC(C)Oc1nc(N)c2ncc(CC3CCOCC3)n2n1 (stereo not drawn) [Compound B36, 2-(pent-2-yloxy)-7-((tetrahydro-2H-pyran-4-yl)methyl)imidazo[2,1-f][1,2,4]triazin-4-amine] |  |
| 0.022 µM | CCC[C@H](C)Oc1nc(N)c2ncc(CC3CCN(C)CC3)n2n1 [Compound B32, (S)-7-((1-methylpiperidin-4-yl)methyl)-2-(pent-2-yloxy)imidazo[2,1-f][1,2,4]triazin-4-amine] |  |
| 0.138 µM | CCC[C@H](C)Oc1nc(N)c2ncc(CC3CCN(CC4CCNCC4)CC3)n2n1 [Compound B14, (S)-2-(pent-2-yloxy)-7-((1-(piperidin-4-ylmethyl)piperidin-4-yl)methyl)imidazo[2,1-f][1,2,4]triazin-4-amine] |  |
| 0.099 µM | CCC[C@H](C)Oc1nc(N)c2ncc(CC3CCNC3)n2n1 (stereo partly drawn) [Compound B26, 2—(((S)-pent-2-yl)oxy)-7-(pyrrolidin-3-ylmethyl)imidazo[2,1-f][1,2,4]triazin-4-amine] |  |
| 0.024 µM | CCC[C@H](C)Oc1nc(N)c2ncc(CC3CCN(CC(C)NC)CC3)n2n1 (single isomer, unassigned) [Compound B58, 7-((1-((R or S)-2-(methylamino)propyl)piperidin-4-yl)methyl)-2-(((S)-pent-2-yl)oxy)imidazo[2,1-f][1,2,4]triazin-4-amine] |  |
| 0.558 µM | CCC[C@H](C)Oc1nc(N)c2ncc(CC3CCN(CC4CCCN4)CC3)n2n1 (stereo partly drawn) [Compound B20, 2—(((S)-pent-2-yl)oxy)-7-((1-(pyrrolidin-2-ylmethyl)piperidin-4-yl)methyl)imidazo[2,1-f][1,2,4]triazin-4-amine] |  |
